From patent US9359358B2, “Cyclohexyl azetidine derivatives as JAK inhibitors” (Incyte Holdings Corporation, priority 2011, dated 2016)

Key:
human JAK1 = target: T1, human JAK1 (Homo sapiens, UniProt P23458); test: In Vitro JAK Kinase Assay (HTRF, phosphorylation of a biotinylated peptide), JAK1; format: biochemical; settings: Table 5; catalytic domain a.a. 837-1142, assay of Example A
T1 construct: human JAK1 (a.a. 837-1142); His tag (N); made in house; host or cells: insect cells (baculovirus)
T1 sequence (P23458 849-1154): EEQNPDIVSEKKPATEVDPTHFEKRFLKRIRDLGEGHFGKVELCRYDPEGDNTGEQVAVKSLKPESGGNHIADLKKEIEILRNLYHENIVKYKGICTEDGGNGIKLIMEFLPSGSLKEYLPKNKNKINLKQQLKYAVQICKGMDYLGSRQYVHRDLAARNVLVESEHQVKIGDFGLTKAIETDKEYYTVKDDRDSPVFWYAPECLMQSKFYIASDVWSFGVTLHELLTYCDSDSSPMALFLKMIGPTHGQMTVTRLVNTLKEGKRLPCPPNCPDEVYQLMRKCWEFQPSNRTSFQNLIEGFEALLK
Method in brief: (§1)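 HTRF detection (SA-APC plus Eu-labeled anti-phosphotyrosine Py20, 40 min after EDTA stop) quantified biotinylated-peptide phosphorylation. Kinase reactions with human JAK1 or JAK2 catalytic domains lasted 1 h at room temperature.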

human JAK2 = target: T2, human JAK2 (Homo sapiens, UniProt O60674); test: In Vitro JAK Kinase Assay (HTRF, phosphorylation of a biotinylated peptide), JAK2; format: biochemical; settings: Table 5; assay of Example A
T2 construct: JAK2 (a.a. 828-1132); His tag (N); made in house; host or cells: insect cells (baculovirus)
T2 sequence (O60674 828-1132): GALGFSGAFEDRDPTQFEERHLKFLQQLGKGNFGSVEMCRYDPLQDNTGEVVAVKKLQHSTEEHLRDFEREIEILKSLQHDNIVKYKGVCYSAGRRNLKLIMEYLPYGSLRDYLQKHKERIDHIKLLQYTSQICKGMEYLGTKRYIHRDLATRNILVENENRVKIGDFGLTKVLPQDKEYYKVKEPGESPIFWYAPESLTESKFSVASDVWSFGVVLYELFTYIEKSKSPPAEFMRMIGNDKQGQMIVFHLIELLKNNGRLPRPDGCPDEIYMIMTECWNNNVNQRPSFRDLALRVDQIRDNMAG
Method in brief: as §1

| SMILES | IC50 (human JAK1) | JAK2/JAK1 IC50 ratio (human JAK2) |
| --- | --- | --- |
| CC(C)NC(=O)c1cc(O[C@H]2CC[C@@H](N3CC(CC#N)(n4cc(-c5ncnc6[nH]ccc56)cn4)C3)CC2)nc(C(F)(F)F)c1 [Example 83, 2-[(cis-4-{3-(cyanomethyl)-3-[4-(7H-pyrrolo[2,3-d]pyrimidin-4-yl)-1H-pyrazol-1-yl]azetidin-1-yl}cyclohexyl)oxy]-N-isopropyl-6-(trifluoromethyl)isonicotinamide bis(trifluoroacetate)] | < 10 nM | ≧10 |
| C[C@@H](CO)NC(=O)c1cc(O[C@H]2CC[C@@H](N3CC(CC#N)(n4cc(-c5ncnc6[nH]ccc56)cn4)C3)CC2)nc(C(F)(F)F)c1 [Example 84, 2-[(cis-4-{3-(cyanomethyl)-3-[4-(7H-pyrrolo[2,3-d]pyrimidin-4-yl)-1H-pyrazol-1-yl]azetidin-1-yl}cyclohexyl)oxy]-N-[(1S)-2-hydroxy-1-methylethyl]-6-(trifluoromethyl)isonicotinamide bis(trifluoroacetate)] | < 10 nM | ≧10 |
| C[C@H](CO)NC(=O)c1cc(O[C@H]2CC[C@@H](N3CC(CC#N)(n4cc(-c5ncnc6[nH]ccc56)cn4)C3)CC2)nc(C(F)(F)F)c1 [Example 85, 2-[(cis-4-{3-(cyanomethyl)-3-[4-(7H-pyrrolo[2,3-d]pyrimidin-4-yl)-1H-pyrazol-1-yl]azetidin-1-yl}cyclohexyl)oxy]-N-[(1R)-2-hydroxy-1-methylethyl]-6-(trifluoromethyl)isonicotinamide bis(trifluoroacetate)] | < 10 nM | ≧10 |
| N#CCC1(n2cc(-c3ncnc4[nH]ccc34)cn2)CN([C@H]2CC[C@@H](Oc3cc(C(=O)NC4CC4)cc(C(F)(F)F)n3)CC2)C1 [Example 86, 2-[(cis-4-{3-(cyanomethyl)-3-[4-(7H-pyrrolo[2,3-d]pyrimidin-4-yl)-1H-pyrazol-1-yl]azetidin-1-yl}cyclohexyl)oxy]-N-cyclopropyl-6-(trifluoromethyl)isonicotinamide bis(trifluoroacetate)] | < 10 nM | ≧10 |
| CN(C(=O)c1cc(O[C@H]2CC[C@@H](N3CC(CC#N)(n4cc(-c5ncnc6[nH]ccc56)cn4)C3)CC2)nc(C(F)(F)F)c1)C1CC1 [Example 87, 2-[(cis-4-{3-(cyanomethyl)-3-[4-(7H-pyrrolo[2,3-d]pyrimidin-4-yl)-1H-pyrazol-1-yl]azetidin-1-yl}cyclohexyl)oxy]-N-cyclopropyl-N-methyl-6-(trifluoromethyl)isonicotinamide bis(trifluoroacetate)] | < 10 nM | ≧10 |
| N#CCC1(n2cc(-c3ncnc4[nH]ccc34)cn2)CN([C@H]2CC[C@@H](Oc3cc(C(=O)N4CC(O)C4)cc(C(F)(F)F)n3)CC2)C1 [Example 89, {1-(cis-4-{[4-[(3-hydroxyazetidin-1-yl)carbonyl]-6-(trifluoromethyl)pyridin-2-yl]oxy}cyclohexyl)-3-[4-(7H-pyrrolo[2,3-d]pyrimidin-4-yl)-1H-pyrazol-1-yl]azetidin-3-yl}acetonitrile bis(trifluoroacetate)] | < 10 nM | ≧10 |
| N#CCC1(n2cc(-c3ncnc4[nH]ccc34)cn2)CN([C@H]2CC[C@@H](Oc3cc(C(=O)NC4CCC4)cc(C(F)(F)F)n3)CC2)C1 [Example 90, 2-[(cis-4-{3-(cyanomethyl)-3-[4-(7H-pyrrolo[2,3-d]pyrimidin-4-yl)-1H-pyrazol-1-yl]azetidin-1-yl}cyclohexyl)oxy]-N-cyclobutyl-6-(trifluoromethyl)isonicotinamide bis(trifluoroacetate)] | < 10 nM | ≧10 |
| N#CCC1(n2cc(-c3ncnc4[nH]ccc34)cn2)CN([C@H]2CC[C@@H](Oc3cc(C(=O)N4CC(C#N)C4)cc(C(F)(F)F)n3)CC2)C1 [Example 91, 1-[2-[(cis-4-{3-(cyanomethyl)-3-[4-(7H-pyrrolo[2,3-d]pyrimidin-4-yl)-1H-pyrazol-1-yl]azetidin-1-yl}cyclohexyl)oxy]-6-(trifluoromethyl)isonicotinoyl]azetidine-3-carbonitrile bis(trifluoroacetate)] | < 10 nM | ≧10 |
| N#CCC1(n2cc(-c3ncnc4[nH]ccc34)cn2)CN([C@H]2CC[C@@H](Oc3cc(CN4CCOCC4)cc(C(F)(F)F)n3)CC2)C1 [Example 92, {1-(cis-4-{[4-(morpholin-4-ylmethyl)-6-(trifluoromethyl)pyridin-2-yl]oxy}cyclohexyl)-3-[4-(7H-pyrrolo[2,3-d]pyrimidin-4-yl)-1H-pyrazol-1-yl]azetidin-3-yl}acetonitrile tris(trifluoroacetate)] | < 10 nM | ≧10 |
| N#CCC1(n2cc(-c3ncnc4[nH]ccc34)cn2)CN([C@H]2CC[C@@H](Oc3cc(CN4CC[C@@H](O)C4)cc(C(F)(F)F)n3)CC2)C1 [Example 95, {1-(cis-4-{[4-{[(3R)-3-hydroxypyrrolidin-1-yl]methyl}-6-(trifluoromethyl)pyridin-2-yl]oxy}cyclohexyl)-3-[4-(7H-pyrrolo[2,3-d]pyrimidin-4-yl)-1H-pyrazol-1-yl]azetidin-3-yl}acetonitrile pentakis(trifluoroacetate)] | < 10 nM | ≧10 |
| N#CCC1(n2cc(-c3ncnc4[nH]ccc34)cn2)CN([C@H]2CC[C@@H](Oc3cc(CN4CC[C@H](O)C4)cc(C(F)(F)F)n3)CC2)C1 [Example 96, {1-(cis-4-{[4-{[(3S)-3-hydroxypyrrolidin-1-yl]methyl}-6-(trifluoromethyl)pyridin-2-yl]oxy}cyclohexyl)-3-[4-(7H-pyrrolo[2,3-d]pyrimidin-4-yl)-1H-pyrazol-1-yl]azetidin-3-yl}acetonitrile tris(trifluoroacetate)] | < 10 nM | ≧10 |

Now from value to compound:

| IC50 (human JAK1) | JAK2/JAK1 IC50 ratio (human JAK2) | SMILES |
| --- | --- | --- |
| < 10 nM | ≧10 | C[C@H](CO)NCc1cc(O[C@H]2CC[C@@H](N3CC(CC#N)(n4cc(-c5ncnc6[nH]ccc56)cn4)C3)CC2)nc(C(F)(F)F)c1 [Example 75, {1-(cis-4-{[4-({[(1R)-2-hydroxy-1-methylethyl]amino}methyl)-6-(trifluoromethyl)pyridin-2-yl]oxy}cyclohexyl)-3-[4-(7H-pyrrolo[2,3-d]pyrimidin-4-yl)-1H-pyrazol-1-yl]azetidin-3-yl}acetonitrile tris(trifluoroacetate)] |
| < 10 nM | ≧10 | N#CCC1(n2cc(-c3ncnc4[nH]ccc34)cn2)CN([C@H]2CC[C@@H](Oc3cc(CNCC4CC4)cc(C(F)(F)F)n3)CC2)C1 [Example 76, {1-(cis-4-{[4-{[(cyclopropylmethyl)amino]methyl}-6-(trifluoromethyl)pyridin-2-yl]oxy}cyclohexyl)-3-[4-(7H-pyrrolo[2,3-d]pyrimidin-4-yl)-1H-pyrazol-1-yl]azetidin-3-yl}acetonitrile tris(trifluoroacetate)] |
| < 10 nM | ≧10 | N#CCC1(n2cc(-c3ncnc4[nH]ccc34)cn2)CN([C@H]2CC[C@@H](Oc3cc(CNC4CCC4)cc(C(F)(F)F)n3)CC2)C1 [Example 77, {1-(cis-4-{[4-[(cyclobutylamino)methyl]-6-(trifluoromethyl)pyridin-2-yl]oxy}cyclohexyl)-3-[4-(7H-pyrrolo[2,3-d]pyrimidin-4-yl)-1H-pyrazol-1-yl]azetidin-3-yl}acetonitrile tris(trifluoroacetate)] |
| < 10 nM | ≧10 | N#CCC1(n2cc(-c3ncnc4[nH]ccc34)cn2)CN([C@H]2CC[C@@H](Oc3cc(CN4CCC4)cc(C(F)(F)F)n3)CC2)C1 [Example 78, {1-(cis-4-{[4-(azetidin-1-ylmethyl)-6-(trifluoromethyl)pyridin-2-yl]oxy}cyclohexyl)-3-[4-(7H-pyrrolo[2,3-d]pyrimidin-4-yl)-1H-pyrazol-1-yl]azetidin-3-yl}acetonitrile tris(trifluoroacetate)] |
| < 10 nM | ≧10 | N#CCC1(n2cc(-c3ncnc4[nH]ccc34)cn2)CN([C@H]2CC[C@@H](Oc3cc(CN4CC(O)C4)cc(C(F)(F)F)n3)CC2)C1 [Example 79, {1-(cis-4-{[4-[(3-hydroxyazetidin-1-yl)methyl]-6-(trifluoromethyl)pyridin-2-yl]oxy}cyclohexyl)-3-[4-(7H-pyrrolo[2,3-d]pyrimidin-4-yl)-1H-pyrazol-1-yl]azetidin-3-yl}acetonitrile tris(trifluoroacetate)] |
| < 10 nM | ≧10 | CNC(=O)c1cc(O[C@H]2CC[C@@H](N3CC(CC#N)(n4cc(-c5ncnc6[nH]ccc56)cn4)C3)CC2)nc(C(F)(F)F)c1 [Example 80, 2-[(cis-4-{3-(cyanomethyl)-3-[4-(7H-pyrrolo[2,3-d]pyrimidin-4-yl)-1H-pyrazol-1-yl]azetidin-1-yl}cyclohexyl)oxy]-N-methyl-6-(trifluoromethyl)isonicotinamide bis(trifluoroacetate)] |
| < 10 nM | ≧10 | CN(C)C(=O)c1cc(O[C@H]2CC[C@@H](N3CC(CC#N)(n4cc(-c5ncnc6[nH]ccc56)cn4)C3)CC2)nc(C(F)(F)F)c1 [Example 81, 2-[(cis-4-{3-(cyanomethyl)-3-[4-(7H-pyrrolo[2,3-d]pyrimidin-4-yl)-1H-pyrazol-1-yl]azetidin-1-yl}cyclohexyl)oxy]-N,N-dimethyl-6-(trifluoromethyl)isonicotinamide bis(trifluoroacetate)] |
| < 10 nM | ≧10 | CN(CCO)C(=O)c1cc(O[C@H]2CC[C@@H](N3CC(CC#N)(n4cc(-c5ncnc6[nH]ccc56)cn4)C3)CC2)nc(C(F)(F)F)c1 [Example 82, 2-[(cis-4-{3-(cyanomethyl)-3-[4-(7H-pyrrolo[2,3-d]pyrimidin-4-yl)-1H-pyrazol-1-yl]azetidin-1-yl}cyclohexyl)oxy]-N-(2-hydroxyethyl)-N-methyl-6-(trifluoromethyl)isonicotinamide bis(trifluoroacetate)] |
